{
  "source": "the kinase profiling compilation of Christmann-Franck et al. (2016)",
  "assay_in_all_cases": "KINOMEscan competition binding",
  "conditions_in_all_cases": "compound 10.0 µM",
  "key": {"[1]": {"target": "CaMK1 (human) (UniProt Q14012)", "sequence (Q14012 whole entry, looked up)": "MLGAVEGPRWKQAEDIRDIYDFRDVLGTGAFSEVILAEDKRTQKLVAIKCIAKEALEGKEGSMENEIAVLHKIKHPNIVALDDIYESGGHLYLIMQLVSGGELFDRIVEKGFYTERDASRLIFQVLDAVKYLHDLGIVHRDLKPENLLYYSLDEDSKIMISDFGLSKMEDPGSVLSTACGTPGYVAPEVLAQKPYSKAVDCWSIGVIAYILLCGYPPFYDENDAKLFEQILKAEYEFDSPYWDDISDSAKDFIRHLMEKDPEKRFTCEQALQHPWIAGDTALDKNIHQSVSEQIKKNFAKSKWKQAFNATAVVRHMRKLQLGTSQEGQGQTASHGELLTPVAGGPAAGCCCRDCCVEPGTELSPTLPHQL"}, "[2]": {"target": "ERBB2 (human) (UniProt P04626)"}, "[3]": {"target": "CDK17 (human) (UniProt Q00537)"}, "[4]": {"target": "FGR (human) (UniProt P09769)", "sequence (P09769 whole entry, looked up)": "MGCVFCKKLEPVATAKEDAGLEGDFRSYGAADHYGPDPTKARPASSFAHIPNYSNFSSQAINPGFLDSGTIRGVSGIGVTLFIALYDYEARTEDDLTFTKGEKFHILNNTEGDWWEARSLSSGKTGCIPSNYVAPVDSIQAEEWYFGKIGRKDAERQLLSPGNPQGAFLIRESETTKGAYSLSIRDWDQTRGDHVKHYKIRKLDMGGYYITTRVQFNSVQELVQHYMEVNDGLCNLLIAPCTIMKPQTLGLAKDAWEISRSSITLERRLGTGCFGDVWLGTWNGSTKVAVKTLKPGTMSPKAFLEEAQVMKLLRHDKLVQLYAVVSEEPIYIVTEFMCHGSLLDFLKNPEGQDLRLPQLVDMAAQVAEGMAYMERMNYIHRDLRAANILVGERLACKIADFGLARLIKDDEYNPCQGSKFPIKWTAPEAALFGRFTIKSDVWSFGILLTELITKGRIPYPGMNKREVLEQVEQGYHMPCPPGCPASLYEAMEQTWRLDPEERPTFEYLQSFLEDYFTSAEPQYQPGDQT"}, "[5]": {"target": "MAST1 (human) (UniProt Q9Y2H9)"}, "[6]": {"target": "ROCK2 (human) (UniProt O75116)"}, "[7]": {"target": "TYRO3 (human) (UniProt Q06418)"}, "[8]": {"target": "BTK (human) (UniProt Q06187)"}, "[9]": {"target": "RPS6KA4 KD2 (human) (UniProt O75676)"}, "[10]": {"target": "CAMKK2 (human) (UniProt Q96RR4)"}, "[11]": {"target": "HIPK4 (human) (UniProt Q8NE63)", "sequence (Q8NE63 whole entry, looked up)": "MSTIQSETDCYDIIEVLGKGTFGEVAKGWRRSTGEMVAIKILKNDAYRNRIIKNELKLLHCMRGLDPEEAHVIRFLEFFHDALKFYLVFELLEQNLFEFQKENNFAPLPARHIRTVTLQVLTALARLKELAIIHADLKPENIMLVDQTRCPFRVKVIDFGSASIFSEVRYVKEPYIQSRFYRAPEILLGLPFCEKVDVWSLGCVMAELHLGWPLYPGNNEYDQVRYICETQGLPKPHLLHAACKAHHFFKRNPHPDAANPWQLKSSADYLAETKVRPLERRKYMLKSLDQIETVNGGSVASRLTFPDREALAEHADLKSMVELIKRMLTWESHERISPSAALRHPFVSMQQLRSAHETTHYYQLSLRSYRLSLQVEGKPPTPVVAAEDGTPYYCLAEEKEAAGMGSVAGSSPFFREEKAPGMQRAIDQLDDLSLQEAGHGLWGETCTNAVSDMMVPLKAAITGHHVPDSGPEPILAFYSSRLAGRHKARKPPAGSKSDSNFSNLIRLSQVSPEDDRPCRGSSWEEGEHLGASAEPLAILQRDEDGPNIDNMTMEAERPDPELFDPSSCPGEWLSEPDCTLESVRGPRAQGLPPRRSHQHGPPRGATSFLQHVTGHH"}, "[12]": {"target": "CSNK1D (human) (UniProt P48730)", "sequence (P48730 whole entry, looked up)": "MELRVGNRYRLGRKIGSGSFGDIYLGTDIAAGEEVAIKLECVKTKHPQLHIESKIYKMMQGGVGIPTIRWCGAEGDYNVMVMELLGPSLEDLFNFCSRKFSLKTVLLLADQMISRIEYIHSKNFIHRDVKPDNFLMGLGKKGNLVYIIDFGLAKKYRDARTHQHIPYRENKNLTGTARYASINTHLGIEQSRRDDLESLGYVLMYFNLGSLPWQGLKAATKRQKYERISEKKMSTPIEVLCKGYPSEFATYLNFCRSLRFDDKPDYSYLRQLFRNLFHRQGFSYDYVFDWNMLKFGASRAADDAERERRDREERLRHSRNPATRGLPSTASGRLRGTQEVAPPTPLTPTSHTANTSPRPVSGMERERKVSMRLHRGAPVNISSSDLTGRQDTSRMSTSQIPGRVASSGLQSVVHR"}, "[13]": {"target": "CAMKK1 (human) (UniProt Q8N5S9)"}, "[14]": {"target": "HUNK (human) (UniProt P57058)"}, "[15]": {"test_system": "EGFR (human), P00533 [A750P; 747-749 del]"}, "[16]": {"target": "STK38 (human) (UniProt Q15208)"}, "[17]": {"target": "TBK1 (human) (UniProt Q9UHD2)", "sequence (Q9UHD2 whole entry, looked up)": "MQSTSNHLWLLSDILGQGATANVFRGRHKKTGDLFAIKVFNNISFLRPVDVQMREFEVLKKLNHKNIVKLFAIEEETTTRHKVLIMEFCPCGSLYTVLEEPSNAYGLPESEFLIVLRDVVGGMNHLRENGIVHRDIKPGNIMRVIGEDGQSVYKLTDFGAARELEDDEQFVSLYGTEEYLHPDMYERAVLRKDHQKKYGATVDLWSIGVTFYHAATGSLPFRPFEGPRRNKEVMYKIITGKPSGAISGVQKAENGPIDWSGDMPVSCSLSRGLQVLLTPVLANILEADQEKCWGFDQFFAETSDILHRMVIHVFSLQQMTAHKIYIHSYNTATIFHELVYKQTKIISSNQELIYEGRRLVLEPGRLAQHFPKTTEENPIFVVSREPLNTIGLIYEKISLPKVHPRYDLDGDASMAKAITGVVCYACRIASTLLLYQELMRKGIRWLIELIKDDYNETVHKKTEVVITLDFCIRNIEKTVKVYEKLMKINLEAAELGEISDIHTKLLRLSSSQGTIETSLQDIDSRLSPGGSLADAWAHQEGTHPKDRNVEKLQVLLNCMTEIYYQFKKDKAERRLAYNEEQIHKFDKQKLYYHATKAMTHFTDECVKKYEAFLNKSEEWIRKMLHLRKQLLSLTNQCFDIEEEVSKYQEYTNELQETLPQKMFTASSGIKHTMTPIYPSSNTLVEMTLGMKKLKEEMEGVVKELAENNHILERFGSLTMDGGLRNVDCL"}, "[18]": {"target": "SRMS (human) (UniProt Q9H3Y6)"}, "[19]": {"target": "ACVR1 (human) (UniProt Q04771)"}, "[20]": {"target": "ROCK1 (human) (UniProt Q13464)"}, "[21]": {"target": "LATS1 (human) (UniProt O95835)"}, "[22]": {"target": "EGFR (human) (UniProt P00533)"}, "[23]": {"target": "PRKCE (human) (UniProt Q02156)", "sequence (Q02156 whole entry, looked up)": "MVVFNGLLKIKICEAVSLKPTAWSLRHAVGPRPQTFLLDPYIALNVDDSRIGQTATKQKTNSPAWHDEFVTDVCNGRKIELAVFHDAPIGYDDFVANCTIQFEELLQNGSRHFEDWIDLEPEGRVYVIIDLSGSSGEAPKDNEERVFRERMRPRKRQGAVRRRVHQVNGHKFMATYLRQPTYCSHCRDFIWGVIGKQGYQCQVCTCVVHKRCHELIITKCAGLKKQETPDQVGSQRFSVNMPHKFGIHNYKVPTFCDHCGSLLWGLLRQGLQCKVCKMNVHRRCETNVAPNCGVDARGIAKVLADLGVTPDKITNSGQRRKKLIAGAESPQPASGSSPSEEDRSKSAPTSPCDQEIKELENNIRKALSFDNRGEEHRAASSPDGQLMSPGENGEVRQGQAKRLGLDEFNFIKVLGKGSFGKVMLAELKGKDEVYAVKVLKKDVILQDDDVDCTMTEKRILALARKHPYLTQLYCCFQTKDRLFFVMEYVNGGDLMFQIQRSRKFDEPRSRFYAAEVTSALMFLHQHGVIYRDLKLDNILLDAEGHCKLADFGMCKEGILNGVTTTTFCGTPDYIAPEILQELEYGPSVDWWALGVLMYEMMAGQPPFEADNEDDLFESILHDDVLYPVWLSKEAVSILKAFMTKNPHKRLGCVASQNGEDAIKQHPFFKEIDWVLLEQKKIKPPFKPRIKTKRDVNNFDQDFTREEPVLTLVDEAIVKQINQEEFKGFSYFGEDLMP"}, "[24]": {"target": "CDK18 (human) (UniProt Q07002)", "sequence (Q07002 whole entry, looked up)": "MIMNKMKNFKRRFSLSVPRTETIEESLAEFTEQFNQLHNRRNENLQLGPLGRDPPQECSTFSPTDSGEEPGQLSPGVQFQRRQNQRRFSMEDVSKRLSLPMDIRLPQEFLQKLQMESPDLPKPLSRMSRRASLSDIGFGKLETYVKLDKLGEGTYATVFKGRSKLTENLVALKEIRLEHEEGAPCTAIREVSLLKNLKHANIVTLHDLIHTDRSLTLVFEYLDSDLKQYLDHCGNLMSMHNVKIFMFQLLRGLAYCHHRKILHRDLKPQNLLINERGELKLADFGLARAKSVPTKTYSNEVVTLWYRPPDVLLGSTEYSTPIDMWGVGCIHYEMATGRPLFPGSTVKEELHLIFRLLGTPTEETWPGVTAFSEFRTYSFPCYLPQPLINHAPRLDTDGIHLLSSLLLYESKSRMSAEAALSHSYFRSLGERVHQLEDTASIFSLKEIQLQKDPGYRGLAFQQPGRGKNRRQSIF"}, "[25]": {"target": "PRKG1 (human) (UniProt Q13976)"}, "[26]": {"target": "TTK (human) (UniProt P33981)"}, "[27]": {"target": "CAMK2G (human) (UniProt Q13555)"}, "[28]": {"target": "MAPK1 (human) (UniProt P28482)", "sequence (P28482 whole entry, looked up)": "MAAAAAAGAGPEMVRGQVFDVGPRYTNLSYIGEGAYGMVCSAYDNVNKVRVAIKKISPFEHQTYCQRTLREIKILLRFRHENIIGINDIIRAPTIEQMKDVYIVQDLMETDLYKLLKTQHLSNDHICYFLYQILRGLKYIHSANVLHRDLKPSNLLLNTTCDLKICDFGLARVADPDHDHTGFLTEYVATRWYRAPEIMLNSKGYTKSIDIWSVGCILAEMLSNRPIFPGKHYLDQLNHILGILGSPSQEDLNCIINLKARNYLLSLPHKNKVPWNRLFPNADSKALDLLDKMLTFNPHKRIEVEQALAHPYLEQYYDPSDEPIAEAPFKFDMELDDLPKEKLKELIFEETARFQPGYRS"}, "[29]": {"target": "HCK (human) (UniProt P08631)"}, "[30]": {"target": "TAOK1 (human) (UniProt Q7L7X3)"}, "[31]": {"test_system": "PIK3CA (human), P42336 [M1043I]"}, "[32]": {"target": "BRSK2 (human) (UniProt Q8IWQ3)", "sequence (Q8IWQ3 whole entry, looked up)": "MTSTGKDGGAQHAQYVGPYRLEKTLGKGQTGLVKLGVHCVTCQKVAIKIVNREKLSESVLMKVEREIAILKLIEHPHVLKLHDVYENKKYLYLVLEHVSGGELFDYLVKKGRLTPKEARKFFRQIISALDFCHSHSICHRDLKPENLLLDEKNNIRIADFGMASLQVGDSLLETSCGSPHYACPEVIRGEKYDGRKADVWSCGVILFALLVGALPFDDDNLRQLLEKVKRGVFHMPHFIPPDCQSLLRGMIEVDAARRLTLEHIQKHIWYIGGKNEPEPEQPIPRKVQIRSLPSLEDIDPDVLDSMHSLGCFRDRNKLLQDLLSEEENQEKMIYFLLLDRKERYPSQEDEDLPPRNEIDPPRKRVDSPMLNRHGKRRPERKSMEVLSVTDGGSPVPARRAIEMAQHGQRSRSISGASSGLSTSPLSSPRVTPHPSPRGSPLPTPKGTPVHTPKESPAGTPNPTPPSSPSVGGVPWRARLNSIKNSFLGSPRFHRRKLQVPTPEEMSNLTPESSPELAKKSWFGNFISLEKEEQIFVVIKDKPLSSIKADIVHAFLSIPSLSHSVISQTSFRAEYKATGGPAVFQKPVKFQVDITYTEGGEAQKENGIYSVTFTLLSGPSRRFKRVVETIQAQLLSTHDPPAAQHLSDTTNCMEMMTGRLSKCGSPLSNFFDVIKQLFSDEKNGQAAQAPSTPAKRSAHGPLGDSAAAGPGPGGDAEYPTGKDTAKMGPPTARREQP"}, "[33]": {"target": "MAP3K11 (human) (UniProt Q16584)"}, "[34]": {"target": "CDK16 (human) (UniProt Q00536)"}, "[35]": {"target": "DCLK1 (human) (UniProt O15075)"}, "[36]": {"target": "EPHB6 (human) (UniProt O15197)"}, "[37]": {"target": "TRPM6 (human) (UniProt Q9BX84)"}, "[38]": {"target": "MYLK (human) (UniProt Q15746)"}, "[39]": {"target": "FGFR4 (human) (UniProt P22455)"}, "[40]": {"target": "STK17B (human) (UniProt O94768)"}, "[41]": {"target": "CSNK1G1 (human) (UniProt Q9HCP0)"}},
  "data": [
    {"smiles": "COC(=O)Nc1ccc(-c2nc(N3CCOCC3)c3cnn(C4CCN(C(=O)OC)CC4)c3n2)cc1", "values": [
      {"measurement": "kinase still bound, per cent of control", "setting": "[1]", "result": 96, "unit": "%"},
      {"measurement": "kinase still bound, per cent of control", "setting": "[2]", "result": 100, "unit": "%"},
      {"measurement": "per cent of control", "setting": "[3]", "result": 100, "unit": "%"},
      {"measurement": "kinase still bound, per cent of control", "setting": "[4]", "result": 96, "unit": "%"},
      {"measurement": "kinase still bound, per cent of control", "setting": "[5]", "result": 81, "unit": "%"},
      {"measurement": "kinase still bound, per cent of control", "setting": "[6]", "result": 79, "unit": "%"},
      {"measurement": "kinase still bound, per cent of control", "setting": "[7]", "result": 100, "unit": "%"},
      {"measurement": "kinase still bound, per cent of control", "setting": "[8]", "result": 99, "unit": "%"},
      {"measurement": "kinase still bound, per cent of control", "setting": "[9]", "result": 88, "unit": "%"},
      {"measurement": "kinase still bound, per cent of control", "setting": "[10]", "result": 84, "unit": "%"},
      {"measurement": "kinase still bound, per cent of control", "setting": "[11]", "result": 97, "unit": "%"},
      {"measurement": "per cent of control", "setting": "[12]", "result": 100, "unit": "%"},
      {"measurement": "kinase still bound, per cent of control", "setting": "[13]", "result": 100, "unit": "%"},
      {"measurement": "kinase still bound, per cent of control", "setting": "[14]", "result": 95, "unit": "%"},
      {"measurement": "kinase still bound, per cent of control", "setting": "[15]", "result": 88, "unit": "%"},
      {"measurement": "kinase still bound, per cent of control", "setting": "[16]", "result": 88, "unit": "%"},
      {"measurement": "kinase still bound, per cent of control", "setting": "[17]", "result": 99, "unit": "%"},
      {"measurement": "kinase still bound, per cent of control", "setting": "[18]", "result": 78, "unit": "%"},
      {"measurement": "kinase still bound, per cent of control", "setting": "[19]", "result": 100, "unit": "%"},
      {"measurement": "kinase still bound, per cent of control", "setting": "[20]", "result": 82, "unit": "%"},
      {"measurement": "kinase still bound, per cent of control", "setting": "[21]", "result": 100, "unit": "%"},
      {"measurement": "kinase still bound, per cent of control", "setting": "[22]", "result": 100, "unit": "%"},
      {"measurement": "kinase still bound, per cent of control", "setting": "[23]", "result": 94, "unit": "%"},
      {"measurement": "per cent of control", "setting": "[24]", "result": 100, "unit": "%"},
      {"measurement": "kinase still bound, per cent of control", "setting": "[25]", "result": 100, "unit": "%"},
      {"measurement": "kinase still bound, per cent of control", "setting": "[26]", "result": 100, "unit": "%"},
      {"measurement": "kinase still bound, per cent of control", "setting": "[27]", "result": 93, "unit": "%"},
      {"measurement": "kinase still bound, per cent of control", "setting": "[28]", "result": 100, "unit": "%"},
      {"measurement": "kinase still bound, per cent of control", "setting": "[29]", "result": 100, "unit": "%"},
      {"measurement": "kinase still bound, per cent of control", "setting": "[30]", "result": 83, "unit": "%"},
      {"measurement": "kinase still bound, per cent of control", "setting": "[31]", "result": 6.8, "unit": "%"},
      {"measurement": "kinase still bound, per cent of control", "setting": "[32]", "result": 100, "unit": "%"},
      {"measurement": "kinase still bound, per cent of control", "setting": "[33]", "result": 97, "unit": "%"},
      {"measurement": "per cent of control", "setting": "[34]", "result": 100, "unit": "%"},
      {"measurement": "kinase still bound, per cent of control", "setting": "[35]", "result": 93, "unit": "%"},
      {"measurement": "kinase still bound, per cent of control", "setting": "[36]", "result": 97, "unit": "%"},
      {"measurement": "kinase still bound, per cent of control", "setting": "[37]", "result": 100, "unit": "%"},
      {"measurement": "per cent of control", "setting": "[38]", "result": 81, "unit": "%"},
      {"measurement": "kinase still bound, per cent of control", "setting": "[39]", "result": 100, "unit": "%"},
      {"measurement": "kinase still bound, per cent of control", "setting": "[40]", "result": 75, "unit": "%"},
      {"measurement": "kinase still bound, per cent of control", "setting": "[41]", "result": 100, "unit": "%"}
    ]},
    {"smiles": "COc1ccc(-c2ccc3c(N4CCOCC4)nc(N4C[C@@H](C)O[C@@H](C)C4)nc3n2)cc1CO", "values": [
      {"measurement": "kinase still bound, per cent of control", "setting": "[1]", "result": 90, "unit": "%"},
      {"measurement": "kinase still bound, per cent of control", "setting": "[2]", "result": 94, "unit": "%"},
      {"measurement": "per cent of control", "setting": "[3]", "result": 100, "unit": "%"},
      {"measurement": "kinase still bound, per cent of control", "setting": "[4]", "result": 100, "unit": "%"},
      {"measurement": "kinase still bound, per cent of control", "setting": "[5]", "result": 100, "unit": "%"},
      {"measurement": "kinase still bound, per cent of control", "setting": "[6]", "result": 21, "unit": "%"},
      {"measurement": "kinase still bound, per cent of control", "setting": "[7]", "result": 100, "unit": "%"},
      {"measurement": "kinase still bound, per cent of control", "setting": "[8]", "result": 100, "unit": "%"},
      {"measurement": "kinase still bound, per cent of control", "setting": "[9]", "result": 95, "unit": "%"},
      {"measurement": "kinase still bound, per cent of control", "setting": "[10]", "result": 64, "unit": "%"},
      {"measurement": "kinase still bound, per cent of control", "setting": "[11]", "result": 88, "unit": "%"},
      {"measurement": "per cent of control", "setting": "[12]", "result": 79, "unit": "%"},
      {"measurement": "kinase still bound, per cent of control", "setting": "[13]", "result": 100, "unit": "%"},
      {"measurement": "kinase still bound, per cent of control", "setting": "[14]", "result": 90, "unit": "%"},
      {"measurement": "kinase still bound, per cent of control", "setting": "[15]", "result": 100, "unit": "%"},
      {"measurement": "kinase still bound, per cent of control", "setting": "[16]", "result": 55, "unit": "%"},
      {"measurement": "kinase still bound, per cent of control", "setting": "[17]", "result": 100, "unit": "%"},
      {"measurement": "kinase still bound, per cent of control", "setting": "[18]", "result": 98, "unit": "%"},
      {"measurement": "kinase still bound, per cent of control", "setting": "[19]", "result": 100, "unit": "%"},
      {"measurement": "kinase still bound, per cent of control", "setting": "[20]", "result": 89, "unit": "%"},
      {"measurement": "kinase still bound, per cent of control", "setting": "[21]", "result": 96, "unit": "%"},
      {"measurement": "kinase still bound, per cent of control", "setting": "[22]", "result": 100, "unit": "%"},
      {"measurement": "kinase still bound, per cent of control", "setting": "[23]", "result": 82, "unit": "%"},
      {"measurement": "per cent of control", "setting": "[24]", "result": 100, "unit": "%"},
      {"measurement": "kinase still bound, per cent of control", "setting": "[25]", "result": 91, "unit": "%"},
      {"measurement": "kinase still bound, per cent of control", "setting": "[26]", "result": 95, "unit": "%"},
      {"measurement": "kinase still bound, per cent of control", "setting": "[27]", "result": 87, "unit": "%"},
      {"measurement": "kinase still bound, per cent of control", "setting": "[28]", "result": 100, "unit": "%"},
      {"measurement": "kinase still bound, per cent of control", "setting": "[29]", "result": 100, "unit": "%"},
      {"measurement": "kinase still bound, per cent of control", "setting": "[30]", "result": 83, "unit": "%"},
      {"measurement": "kinase still bound, per cent of control", "setting": "[31]", "result": 2, "unit": "%"},
      {"measurement": "kinase still bound, per cent of control", "setting": "[32]", "result": 98, "unit": "%"},
      {"measurement": "kinase still bound, per cent of control", "setting": "[33]", "result": 100, "unit": "%"},
      {"measurement": "per cent of control", "setting": "[34]", "result": 100, "unit": "%"},
      {"measurement": "kinase still bound, per cent of control", "setting": "[35]", "result": 100, "unit": "%"},
      {"measurement": "kinase still bound, per cent of control", "setting": "[36]", "result": 83, "unit": "%"},
      {"measurement": "kinase still bound, per cent of control", "setting": "[37]", "result": 50, "unit": "%"},
      {"measurement": "per cent of control", "setting": "[38]", "result": 57, "unit": "%"},
      {"measurement": "kinase still bound, per cent of control", "setting": "[39]", "result": 100, "unit": "%"},
      {"measurement": "kinase still bound, per cent of control", "setting": "[40]", "result": 100, "unit": "%"},
      {"measurement": "kinase still bound, per cent of control", "setting": "[41]", "result": 94, "unit": "%"}
    ]}
  ]
}
